Assay results taken from EP3727588B1, “ACTIVATOR PEPTIDES OF THE ENZYME ADAM 10 AND RELATED USES IN THE TREATMENT OF ALZHEIMER'S DISEASE” (UNIVERSITA' DEGLI STUDI DI MILANO, priority 2017, dated 2019).
Several values for one entry are separate records, joined by “and”; a condition that tells them apart may be missing. Equal values may be shown once. Peptide text beside a SMILES is read from it.

Columns and labels:
[1] = Novel Object Recognition Test (NORT), C57BL/6 mice; type: in vivo; details: 14 days' treatment
Method: (§1) C57/BL6 adult mice were treated for 14 days with daily intraperitoneal injection of saline solution or peptides at a dose of 3 nmol/g (6-10 animals per experimental group). The animals were maintained in an enclosure at 25 ± 2 °C with an alternating light/dark cycle of 12 hours and had free access to water and food in the form of pellets (standard diet).
After 14 days of treatment the animals were subjected to the Novel Object Recognition Test (NORT). Such test is structured in three phases: habituation, familiarization and testing. In the first phase, the animal is placed in an empty arena and left free to explore the environment for 5 minutes. The day after, during the familiarization phase, the animal is placed in the same arena in the presence of two objects, identical in shape and size, for 10 minutes. Then the time spent by the animal exploring the individual object is recorded. On the third day, the animal is placed in the area in the presence of an identical object to that used in the familiarization phase and a new one. In this phase the difference in time spent by the animal exploring the familiar object and the new object is evaluated. […] In both phases of the test, the objects are positioned symmetrically and opposite inside the arena, and all the sessions are recorded with the aid of a video camera. […]

[2] = leukogram (white blood cell count) after 14 days' treatment; type: in vivo, mice
Method: as §1
The blood, collected through cardiac puncture, was analysed with a laser counter (ADVIA 120, Siemens) using specific software for the murine species. From each sample a blood smear was prepared, stained with the May Grünwald-Giemsa method, and used for the morphological analysis of the leukocytes, the red blood cells and the platelet estimate. After the automatic counting of the cells and the preparation of the smear, all the samples were centrifuged and the plasma was transferred into separate test tubes. The analysis of the plasma samples was performed through automatic spectrophotometer (ILAB-300, Instrumentation Laboratory). All the results were compared with the values provided by the company Charles River for mice of the same strain and age.
Except for the basophils and eosinophils, the total count and white blood cell (WBC) differential is lower with respect to the range values in all the animals treated. However, we noticed that the reference range values provided by the company Charles River are particularly high with respect to other values provided for other control groups and in other scientific articles in which the same animal strain is analysed. Justification for these differences found is provided by the pre-analytical factors used by Charles River in determining the different reference ranges (such as the method used, the type of sampling used, etc.). Despite this, the analyses of the data performed both individually and by examining the mean and median values in the different groups, show some differences in the values referring to mice treated with the active peptide with respect to the control mice (Table 2).
The following Table 2 illustrates the results of the white blood cell count. The reference values are provided by Charles River for C57BL mice of 56-70 days.

[3] = system: GFAP and Iba-1 positive cells; experiment: neuro-inflammation: GFAP and Iba-1 positive cells in hippocampus; type: in vivo, mice; details: 5 fields, 14 days' treatment
Method: as §1
After the sacrifice of the treated animal, a portion of liver and a brain hemisphere were fixed in 10% formalin for 48 hours, and included in paraffin. From each block of paraffin, serial sections 5/6µm thick were obtained. The sections were then stained with haematoxylin-eosin or processed through immunohistochemistry.
Subsequently, to evaluate the presence of neuro-inflammation, 5 different fields of the hippocampus were considered to verify any presence of GFAP and Iba-1 positive cells.

[4] = body weight and food intake during 14 days' treatment; type: in vivo; details: C57BL/6 mice, daily intraperitoneal 3 nmol/g
Method: as §1
For the entire duration of the treatment, on a daily basis, the weight and food intake of each animal were monitored and recorded, in order to evaluate any changes caused by the treatment. 24 hours after the last injection the mice were anaesthetized, and then the blood was taken through cardiac puncture, whereas the brain and liver of the animal were rapidly dissected to perform biochemical or immunohistological analyses.
The body weight and food intake were monitored and recorded on a daily basis.

[5] = target: T1, ADAM10/AP2 complex (Rattus norvegicus, UniProt P62944); experiment: co-immunoprecipitation of ADAM10 with AP2 subunits in primary cultures of hippocampal neurons; type: cell-based
T1 construct: endogenous in cells; host or cells: primary hippocampal neurons of rat embryos, DIV14
Method: The primary cultures were prepared from hippocampi of rat embryos as described in [20]. The cultures were grown in media containing Neurobasal (Life Technologies), B27 2% (Life Technologies), GlutaMAX 1% (Life Technologies) and Penicillin/Streptomycin 1% (Pen/Strep; Life Technologies), a 37 °C with 95% humidity and 5% CO2 for 14 days. The cells were treated by diluting the peptides in the complete growth medium, at a final concentration of 1 µM. The treatment was performed for 30 minutes at 37°C, then the neurons were lysed.
For the co-immunoprecipitation experiments, aliquots of 40-100 µg of lysate were incubated at 4°C in RIA 1X buffer (NaCl 200 mM, EDTA 10 mM, Na2HPO4 10 mM, Nonidet P-40, 0.5% and 0.1% SDS) in a final volume of 150 µl with 1-2 µg of antibody. The following day the protein complex A/G (Santa Cruz Biotechnology) was added, conjugated with agarose marbles, and the incubation was continued for 2 hours. After three washes with RIA buffer the samples were loaded onto SDS-PAGE and analysed through Western Blot.
The quantization of the Western Blot analyses was performed through an image analysis program (ImageLab -BioRad). The levels of proteins were expressed as optical density (OD) related to the different measurements and were normalized on respective tubulin levels.
After 30 minutes, the cells were processed and the cell lysate was used for performing the co-IP analyses.

[6] = individual animal, 14 days, daily intraperitoneal 3 nmol/g
[7] = primary cultures of neurons, 1µM, 30 min
[8] = primary hippocampal neurons DIV 14, 1 µM, 30 minutes

T1 sequence (P18484 whole entry): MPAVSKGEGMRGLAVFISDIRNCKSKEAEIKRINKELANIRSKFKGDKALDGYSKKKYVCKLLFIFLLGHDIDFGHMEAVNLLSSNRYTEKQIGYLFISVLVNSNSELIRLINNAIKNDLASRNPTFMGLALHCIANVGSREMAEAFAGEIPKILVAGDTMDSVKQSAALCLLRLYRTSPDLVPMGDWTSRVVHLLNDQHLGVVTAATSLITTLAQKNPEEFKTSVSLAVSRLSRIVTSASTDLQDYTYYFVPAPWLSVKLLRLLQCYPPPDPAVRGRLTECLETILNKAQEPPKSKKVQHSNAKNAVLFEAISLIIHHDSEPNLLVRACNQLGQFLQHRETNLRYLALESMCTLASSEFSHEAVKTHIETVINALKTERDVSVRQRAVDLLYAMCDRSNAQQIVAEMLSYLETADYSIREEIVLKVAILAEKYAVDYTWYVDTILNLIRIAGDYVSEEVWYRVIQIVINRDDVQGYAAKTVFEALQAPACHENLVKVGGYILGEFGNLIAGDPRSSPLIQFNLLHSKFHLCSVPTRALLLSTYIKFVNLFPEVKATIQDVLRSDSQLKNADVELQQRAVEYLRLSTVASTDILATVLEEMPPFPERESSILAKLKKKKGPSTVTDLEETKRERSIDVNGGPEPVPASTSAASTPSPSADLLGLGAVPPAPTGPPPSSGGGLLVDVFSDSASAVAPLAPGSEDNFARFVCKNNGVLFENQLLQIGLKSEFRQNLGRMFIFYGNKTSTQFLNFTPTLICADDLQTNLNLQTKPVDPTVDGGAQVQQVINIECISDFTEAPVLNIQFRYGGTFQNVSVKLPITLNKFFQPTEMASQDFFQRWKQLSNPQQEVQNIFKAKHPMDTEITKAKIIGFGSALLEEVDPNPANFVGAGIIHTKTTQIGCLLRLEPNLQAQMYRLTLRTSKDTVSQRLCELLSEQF
T1 sequence (P62744 whole entry, further chain): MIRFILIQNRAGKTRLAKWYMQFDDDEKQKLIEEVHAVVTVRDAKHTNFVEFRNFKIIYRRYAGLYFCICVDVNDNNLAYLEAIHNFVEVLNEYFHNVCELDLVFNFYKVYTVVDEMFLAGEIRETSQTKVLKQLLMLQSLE
T1 sequence (P84092 whole entry, further chain): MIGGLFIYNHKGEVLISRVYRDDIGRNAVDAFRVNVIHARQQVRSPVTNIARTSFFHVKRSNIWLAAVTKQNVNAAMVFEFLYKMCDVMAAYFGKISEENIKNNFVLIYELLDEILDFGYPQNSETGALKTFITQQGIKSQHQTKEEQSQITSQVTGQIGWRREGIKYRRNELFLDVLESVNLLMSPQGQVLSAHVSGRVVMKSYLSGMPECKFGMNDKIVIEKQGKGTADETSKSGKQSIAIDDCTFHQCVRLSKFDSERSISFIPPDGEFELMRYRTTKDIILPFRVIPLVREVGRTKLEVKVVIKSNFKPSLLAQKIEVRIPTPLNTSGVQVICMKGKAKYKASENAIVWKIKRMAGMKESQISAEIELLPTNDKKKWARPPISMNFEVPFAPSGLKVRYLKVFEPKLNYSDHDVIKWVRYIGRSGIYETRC
T1 sequence (P62944 whole entry): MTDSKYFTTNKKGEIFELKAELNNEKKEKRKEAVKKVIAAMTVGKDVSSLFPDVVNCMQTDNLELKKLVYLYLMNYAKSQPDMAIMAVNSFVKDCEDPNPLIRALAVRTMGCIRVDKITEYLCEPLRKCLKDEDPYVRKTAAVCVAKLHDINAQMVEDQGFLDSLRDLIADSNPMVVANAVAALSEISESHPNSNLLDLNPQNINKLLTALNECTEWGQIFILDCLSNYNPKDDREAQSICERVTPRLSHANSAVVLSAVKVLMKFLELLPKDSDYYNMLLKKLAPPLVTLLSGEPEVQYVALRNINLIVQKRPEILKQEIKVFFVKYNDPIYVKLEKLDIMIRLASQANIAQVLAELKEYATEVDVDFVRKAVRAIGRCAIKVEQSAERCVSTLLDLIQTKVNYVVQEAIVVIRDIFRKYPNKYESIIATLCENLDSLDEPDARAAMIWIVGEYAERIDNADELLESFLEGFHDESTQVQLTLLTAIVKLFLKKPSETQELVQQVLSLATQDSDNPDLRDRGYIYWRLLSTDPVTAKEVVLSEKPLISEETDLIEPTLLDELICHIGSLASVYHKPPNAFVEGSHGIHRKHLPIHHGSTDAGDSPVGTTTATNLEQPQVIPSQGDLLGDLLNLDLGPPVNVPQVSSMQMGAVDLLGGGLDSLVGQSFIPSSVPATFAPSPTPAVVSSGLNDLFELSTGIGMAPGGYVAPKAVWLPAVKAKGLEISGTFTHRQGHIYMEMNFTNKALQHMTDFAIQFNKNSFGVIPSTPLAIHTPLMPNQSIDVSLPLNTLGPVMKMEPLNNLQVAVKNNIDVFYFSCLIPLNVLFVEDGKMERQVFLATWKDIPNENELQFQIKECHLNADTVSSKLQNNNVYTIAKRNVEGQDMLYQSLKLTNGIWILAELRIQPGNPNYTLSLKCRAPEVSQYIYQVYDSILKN

With `N=C(N)NCCC[C@H](NC(=O)CNC(=O)[C@@H](N)Cc1ccc(O)cc1)C(=O)N[C@@H](CCCCN)C(=O)N[C@@H](CCCCN)C(=O)N[C@@H](CCCNC(=N)N)C(=O)N[C@@H](CCCNC(=N)N)C(=O)N[C@@H](CCC(N)=O)C(=O)N[C@@H](CCCNC(=N)N)C(=O)N[C@@H](CCCNC(=N)N)C(=O)N[C@@H](CCCNC(=N)N)C(=O)NCC(=O)NCC(=O)N[C@@H](CO)C(=O)NCC(=O)N[C@@H](CCC(N)=O)C(=O)N1CCC[C@H]1C(=O)N1CCC[C@H]1C(=O)N[C@@H](CCCNC(=N)N)C(=O)N[C@@H](CCC(N)=O)C(=O)N[C@@H](CCCNC(=N)N)C(=O)N1CCC[C@H]1C(=O)N[C@@H](CCCNC(=N)N)C(=O)NCC(=O)O` [PEP3] (H-YGRKKRRQRRRGGSGQPPRQRPRG-OH) the “time exploring the new object” value [1] was 63.52 ± 4.69%, the “immune / allergic reactions inferred from leukogram” value ([2]; 14 days' treatment, said not biologically significant) was “leads to the development of specific immunity and to the possibility of developing possible allergic/hypergic reactions” and the Basophils ([2]; group mean) was 10 µL⁻¹. The Eosinophils ([2]; group mean) was 90 µL⁻¹, the Lymphocytes ([2]; group mean) was 4460 µL⁻¹ and the Monocytes ([2]; group mean) was 200 µL⁻¹. For the same compound, the Neutrophils ([2]; group mean) was 530 µL⁻¹, the White blood cells ([2]; group mean) was 5290 µL⁻¹ and the Basophils ([2]; group median) was 0 µL⁻¹. The Eosinophils ([2]; group median) was “(-0.08). x10^3/µL”, the Lymphocytes ([2]; group median) was “(-4.32). x10^3/µL” and the Monocytes ([2]; group median) was “(-0.23). x10^3/µL”. The Neutrophils ([2]; group median) was “(-0.54). x10^3/µL”, the White blood cells ([2]; group median) was “(-5.21). x10^3/µL” and the Basophils [2, 6] was 0 µL⁻¹ and 40 µL⁻¹. The Eosinophils [2, 6] was 140 µL⁻¹ and 60 µL⁻¹ and 90 µL⁻¹ and 40 µL⁻¹ and 120 µL⁻¹ and 70 µL⁻¹, the Lymphocytes [2, 6] was 5740 µL⁻¹ and 2650 µL⁻¹ and 3820 µL⁻¹ and 3720 µL⁻¹ and 4810 µL⁻¹ and 6010 µL⁻¹ and the Monocytes [2, 6] was 270 µL⁻¹ and 60 µL⁻¹ and 180 µL⁻¹ and 130 µL⁻¹ and 290 µL⁻¹ and 280 µL⁻¹. The Neutrophils [2, 6] was 680 µL⁻¹ and 340 µL⁻¹ and 460 µL⁻¹ and 440 µL⁻¹ and 650 µL⁻¹ and 630 µL⁻¹, the White blood cells [2, 6] was 6830 µL⁻¹ and 3120 µL⁻¹ and 4550 µL⁻¹ and 4380 µL⁻¹ and 5870 µL⁻¹ and 6990 µL⁻¹ and the “number of GFAP positive cells” value [3] was 37.17±3.54. For the same compound, the “number of Iba-1 positive cells” value [3] was 7.33±1.63, the “food intake (ratio daily food intake / mean body weight)” value [4] was 97.09±2.18% and the “PEP/inPEP OD, ADAM10/AP2 complex, µ2” value [5, 7] was 22.43 ± 1.25%. For the same compound, the “PEP/inPEP OD, ADAM10/AP2 complex, α-adaptin” value [5, 7] was 10.84 ± 5.61%, the “reduction in the levels of interaction between ADAM10 and the complex AP2, subunit µ2” value [5, 8] was 78% and the “reduction in the levels of interaction between ADAM10 and the complex AP2, subunit α-adaptin” value [5, 8] was 89%.
